Assay [1] relates to β-glucosidase. Kind of assay: β-glucosidase inhibition assay. Particulars: final concentration of 100 μM in every well; pH 6.8, 37 °C. The class given is biochemical.
The target of assay [2] is α-glucosidase (Saccharomyces cerevisiae, UniProt P53341). Kind of assay: α-glucosidase inhibition assay. The class given is biochemical.

As usually defined, the IC50 is the midpoint of a concentration-inhibition curve. Low values mean greater potency in that assay, high ones weaker potency in that assay.

SMILES strings stand for the structures.

α-glucosidase, sequence (P53341 whole entry): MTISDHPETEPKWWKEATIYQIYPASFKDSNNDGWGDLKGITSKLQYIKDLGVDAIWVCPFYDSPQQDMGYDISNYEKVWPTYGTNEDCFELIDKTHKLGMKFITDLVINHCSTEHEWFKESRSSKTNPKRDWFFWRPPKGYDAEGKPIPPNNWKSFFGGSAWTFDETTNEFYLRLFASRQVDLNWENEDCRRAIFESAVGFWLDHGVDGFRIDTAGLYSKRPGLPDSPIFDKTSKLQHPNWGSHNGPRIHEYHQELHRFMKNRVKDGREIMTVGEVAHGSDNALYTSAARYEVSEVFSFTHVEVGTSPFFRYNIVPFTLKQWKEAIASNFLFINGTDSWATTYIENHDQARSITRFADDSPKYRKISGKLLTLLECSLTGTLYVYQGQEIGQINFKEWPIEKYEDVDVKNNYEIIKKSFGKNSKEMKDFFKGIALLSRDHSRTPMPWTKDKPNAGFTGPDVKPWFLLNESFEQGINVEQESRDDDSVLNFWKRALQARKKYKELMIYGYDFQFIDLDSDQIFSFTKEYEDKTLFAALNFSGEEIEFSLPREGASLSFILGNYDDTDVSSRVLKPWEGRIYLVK

Turning to `COc1cc(C(=O)N=c2scc(-c3ccc(F)cc3)n2-c2ccc(F)c(Cl)c2)cc(OC)c1OC` [6a, N-(3-(3-Chloro-4-fluorophenyl)-4-(4-fluorophenyl)thiazol-2(3H)-ylidene)-3,4,5-trimethoxybenzamide], the “β-glucosidase % age inhibition” value in assay [1] is given as 11.2%. For the same compound, the concentration for half-maximal inhibition (IC50) in assay [2] was determined as 18.2 ± 0.02 µM.
Consider `O=C(N=c1scc(-c2ccc(F)cc2)n1-c1ccccc1F)c1ccccc1Cl` [6b, 2-Chloro-N-(3-(2-fluorophenyl)-4-(4-fluorophenyl)thiazol-2(3H)-ylidene)benzamide], for which the “β-glucosidase % age inhibition” value in assay [1] is recorded as 24.2%. In assay [2], this compound came in with an IC50 of 3.23 ± 0.07 µM.
Taken in the same sequence, the figures for `O=C(N=c1scc(-c2ccc(F)cc2)n1-c1ccccc1F)c1ccccc1F` [6c, 2-Fluoro-N-(3-(2-fluorophenyl)-4-(4-fluorophenyl)thiazol-2(3H)-ylidene)benzamide] were 36.3% and 2.98 ± 0.04 µM.
Regarding `O=C(N=c1scc(-c2ccc(F)cc2)n1-c1ccccc1F)c1cccc(F)c1` [6d, 3-Fluoro-N-(3-(2-fluorophenyl)-4-(4-fluorophenyl) Thiazol-2(3H)-ylidene)benzamide], the “β-glucosidase % age inhibition” value in assay [1] is reported as 18.6%. Also, the IC50 in assay [2] was 1.47 ± 0.05 µM. Besides, in assay [2] (ratio of IC50 values versus acarbose), the “α-glucosidase inhibitory efficacy, folds stronger than acarbose” value is reported as around 24 folds.
In the case of `COc1cc(C(=O)N=c2scc(-c3ccc(F)cc3)n2-c2ccc(F)cc2)cc(OC)c1OC` [6e, N-(3,4-Bis(4-fluorophenyl)thiazol-2(3H)-ylidene)-3,4,5-trimethoxybenzamide], the “β-glucosidase % age inhibition” value in assay [1] is recorded as 9.33%. In addition, the IC50 in assay [2] was 2.1 ± 0.06 µM.
Taken in the same sequence, the figures for `O=C(N=c1scc(-c2ccc(F)cc2)n1-c1ccc(F)c(Cl)c1)c1ccc(F)cc1` [6g, N-(3-(3-Chloro-4-fluorophenyl)-4-(4-fluorophenyl)thiazol-2(3H)-ylidene)-4-fluorobenzamide] were 20.1% and 3.16 ± 0.15 µM.
Taken in the same sequence, the figures for `O=C(N=c1scc(-c2ccc(F)cc2)n1-c1ccc(F)cc1)c1ccccc1Cl` [6h, N-(3,4-Bis(4-fluorophenyl) Thiazol-2(3H)-ylidene)-2-chlorobenzamide] were 17.5% and 4.33 ± 0.19 µM.
Regarding `COc1cc(C(=O)N=c2scc(-c3ccc(F)cc3)n2-c2cccc(F)c2)cc(OC)c1OC` [6i, N-(3-(3-Fluorophenyl)-4-(4-fluorophenyl)thiazol-2(3H)-ylidene)-3,4,5-trimethoxybenzamide], the “β-glucosidase % age inhibition” value in assay [1] was found to be 15.4%. In addition, in assay [2], the IC50 amounted to 8.31 ± 0.13 µM.
Taken in the same sequence, the figures for `O=C(N=c1scc(-c2ccc(F)cc2)n1-c1ccc(F)c(Cl)c1)c1ccccc1F` [6j, N-(3-(3-Chloro-4-fluorophenyl)-4-(4-fluorophenyl)thiazol-2(3H)-ylidene)-2-fluorobenzamide] were 12.8% and 12.5 ± 0.22 µM.
For the compound `C[C@H]1O[C@H](O[C@H]2[C@H](O)[C@@H](O)[C@@H](O[C@H]3[C@H](O)[C@@H](O)C(O)O[C@@H]3CO)O[C@@H]2CO)[C@H](O)[C@@H](O)[C@@H]1N[C@H]1C=C(CO)[C@@H](O)[C@H](O)[C@H]1O` (some centres unmarked) [acarbose, reference compound], the “β-glucosidase % age inhibition” value in assay [1] is recorded as 63.7%.
